In US8765949B2, “CCR2 receptor antagonists and uses thereof” (Boehringer Ingelheim International GmbH, priority 2009, dated 2014) one finds Ki data, which are given here for 42 compounds.

Each structure is given as a SMILES string.

The target in the assay is T1, CCR2 (Homo sapiens, UniProt P41597).
T1 construct: Membranes were prepared from THP-1 cells; endogenous in cells; host or cells: THP-1 (human acute monocytic leukaemia cells), membrane preparation
T1 sequence (P41597 1-360 isoform P41597-2): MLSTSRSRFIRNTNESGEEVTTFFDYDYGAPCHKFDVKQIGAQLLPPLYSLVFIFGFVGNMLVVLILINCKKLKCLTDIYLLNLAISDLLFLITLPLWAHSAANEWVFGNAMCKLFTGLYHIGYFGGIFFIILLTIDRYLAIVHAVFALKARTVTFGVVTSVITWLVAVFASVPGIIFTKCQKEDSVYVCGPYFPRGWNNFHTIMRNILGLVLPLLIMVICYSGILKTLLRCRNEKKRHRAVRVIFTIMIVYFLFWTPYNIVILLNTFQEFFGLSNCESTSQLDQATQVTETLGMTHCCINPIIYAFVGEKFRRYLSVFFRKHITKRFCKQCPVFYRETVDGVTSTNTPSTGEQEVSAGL
The assay can be described thus: CCR2 receptor membrane binding assay ([125I]MCP-1, THP-1 membranes, SPA beads). To be noted: dissociation constant hKi; THP-1 cell membranes, [125I]MCP-1, bound radioactivity after 8 h. The procedure:
The above exemplary substances have been tested for binding to CCR2 using a binding assay as outlined herein below:
THP-1 cells (human acute monocytic leukaemia cells) were cultured under standardized conditions at 37° C. and 5% CO2 in a humidified incubator. THP-1 cells were cultivated in RPMI 1640 medium (Gibco 21875) containing 1% MEM-NEAA (Gibso 11140) 2 mM L-glutamine, 1.5 g/L sodium bicarbonate, 4.5 g/L glucose, 10 mM HEPES and 1.0 mM sodium pyruvate, 90%; 10% fetal calf serum (FCS Gibco 10500-064).
Membranes were prepared from THP-1 cells. THP-1 cells were centrifuged at 300×g at 4° C. for 10 min. The cell pellet was resuspendet in Phosphate Buffer Saline (PBS, including 10 μM Pefabloc and a protease inhibitor mix ‘complete’, Boehringer Mannheim (1 tablet/50 ml)), to a concentration of […]. The membrane preparation was performed by disrupting the cells by nitrogen […] (at 50 bar, for 1 h) in a “Nitrogen Bombe” (Parr Instrument). Cell debris was removed by centrifugation (800×g at 4° C., 1 min). The supernatant was centrifuged at 80000×g, 4° C. for 30 min to sediment the cell membranes. Usually 50 mg of protein (Bradford assay) were yielded from 1×10E9 cells. The membranes were resuspendet in 25 mM HEPES, 25 mM MgCl2, 1 mM CaCl2, 10% Glycerine for storage in aliquots at −80° C. in 25 mM HEPES, 25 mM MgCl2, 1 mM CaCl2, 10% Glycerine and stored at −80° C.
Receptor Membrane Binding Assay:
Perkin Elmer NEX 332 Jod 125 MCP-1, Stock: 2200 Ci/mmol solved in 2000 μl assay buffer, stored at −20° C. THP-1 membrane were adjusted with 25 mM HEPES, pH 7.2; 5 mM MgCl2; 0.5 mM CaCl2; 0.2% BSA assay buffer to a concentration of 2.5 μg/15 μl. Amersham Biosciences PVT-WGA Beads (RPNQ0001) were adjusted with assay buffer to a concentration of 0.24 mg/30 μl. For preparation of the membrane-bead-suspension membranes and beads were incubated for 30 min at RT under rotation (60 rpm) with a ratio of 1:2. Test compounds dissolved in 100% DMSO to a concentration of 10 mM and are further diluted with 100% DMSO to 1 mM. All additional compound dilutions were obtained with assay buffer, final 1% DMSO. Compounds, membrane-bead-suspension and [125I]MCP-1 (ca. 25000 cpm/10 μl) were incubated. Bound radioactivity was determined by scintillation counter after 8 h. Determination of affinity of test compounds (dissociation constant hKi) is calculated by iterative fitting of experimental data using the “easy sys” program, which is based on law of mass action (Schittkowski K. (1994), Numerische Mathematik, Vol. 68, 129-142).
What is called Ki is a dissociation constant, usually derived from enzyme kinetics or from competition with a known ligand. For the compound `Cc1c(NC[C@@H]2CCC[C@H](c3ccccc3)O2)ncnc1C(=O)N1CCC(N2CCC(N(C)S(C)(=O)=O)CC2)CC1` (single isomer, unassigned) [Example 12], the inhibition constant (Ki) turned out to be 27 nM. The value for `Cc1c(NC[C@@H]2CCC[C@H](c3ccccc3)O2)ncnc1C(=O)N1CCC(N2CCC(N(C)S(C)(=O)=O)CC2)CC1` (single isomer, unassigned) [Example 13] was 486 nM; that for `Cc1ccc([C@@H]2CCC[C@H](CNc3ncnc(C(=O)N4CCC(N5CCC(N(C)S(C)(=O)=O)CC5)CC4)c3C)O2)cc1` [Example 1] was 8 nM. Regarding `Cc1c(NC[C@@H]2CCC[C@H](c3ccc(C(F)(F)F)cc3)O2)ncnc1C(=O)N1CCC(N2CCC(N(C)S(C)(=O)=O)CC2)CC1` [Example 2], the Ki turned out to be 151 nM. `COC1CCN(C2CCN(C(=O)c3ncnc(NC[C@@H]4CCC[C@H](c5cccc(C(F)(F)F)c5)O4)c3C)CC2)CC1` [Example 3]: the Ki is 203 nM. The same measure for `COC1CCN(C2CCN(C(=O)c3ncnc(NC[C@H]4CCC[C@@H](c5ccc(C(F)(F)F)cc5)O4)c3C)CC2)CC1` [Example 4]: 26 nM. In the case of `Cc1c(NC[C@@H]2CCC[C@H](c3ccc(Cl)cc3)O2)ncnc1C(=O)N1CCC(N2CCC(N(C)S(C)(=O)=O)CC2)CC1` [Example 6], the Ki was 190 nM.

As to `Cc1c(NC[C@@H]2CCC[C@H](c3cccc(C(F)(F)F)c3)O2)ncnc1C(=O)N1CCC(N2CCC(N(C)S(C)(=O)=O)CC2)CC1` [Example 7], the Ki came to 36 nM. For the compound `Cc1c(NC[C@H]2CCC[C@@H](c3cccc(C(F)(F)F)c3)O2)ncnc1C(=O)N1CCC(N2CCC(N(C)S(C)(=O)=O)CC2)CC1` [Example 8], the Ki was 185 nM. Consider `Cc1ccc([C@@H]2CCC[C@H](CNc3ncnc(C(=O)N4CCC(N5CCC(NS(C)(=O)=O)CC5)CC4)c3C)O2)cc1` [Example 9], for which the Ki was found to be 13 nM. With `Cc1c(NCC2CCCC(c3ccccc3)O2)ncnc1C(=O)N1CCC(N2CCC(N(C)S(C)(=O)=O)CC2)CC1` (stereo not drawn) [Example 10], the Ki stood at 142 nM. For the compound `Cc1c(NC[C@H]2CCC[C@@H](c3ccccc3)O2)ncnc1C(=O)N1CCC(N2CCC(N(C)S(C)(=O)=O)CC2)CC1` [Example 11], the Ki was determined as 53 nM. The value for `Cc1c(NCC2CCCC(c3ccc(F)cc3)O2)ncnc1C(=O)N1CCC(N2CCC(N(C)S(C)(=O)=O)CC2)CC1` (stereo not drawn) [Example 14] was 479 nM; that for `Cc1c(NCC2CCCC(c3ccc(Cl)cc3)O2)ncnc1C(=O)N1CCC(N2CCC(N(C)S(C)(=O)=O)CC2)CC1` (stereo not drawn) [Example 15] was 24 nM; that for `Cc1ccc([C@@H]2CCC[C@H](CNc3ncnc(C(=O)N4CCC(N5CCC(N(C)S(C)(=O)=O)CC5)CC4)c3C)O2)cc1` [Example 17] was 11 nM. The same measure for `Cc1ccc([C@@H]2CCC[C@H](CNc3nc(C)nc(C(=O)N4CCC(N5CCC(N(C)S(C)(=O)=O)CC5)CC4)c3C)O2)cc1` [Example 18]: 10 nM; for `Cc1ccc([C@H]2CCC[C@@H](CNc3ncnc(C(=O)N4CCC(N5CCC(N(C)S(C)(=O)=O)CC5)CC4)c3C)O2)cc1` [Example 19]: 162 nM. For `Cc1ccc([C@@H]2CCC[C@H](CNc3nc(C)nc(C(=O)N4CCC(N5CCC(N(C)S(C)(=O)=O)CC5)CC4)c3C)O2)cc1` [Example 20], the Ki worked out at 11 nM. For `Cc1cccc([C@@H]2CCC[C@H](CNc3ncnc(C(=O)N4CCC(N5CCC(N(C)S(C)(=O)=O)CC5)CC4)c3C)O2)c1` [Example 21], the Ki was 11 nM. Regarding `Cc1cccc([C@@H]2CCC[C@H](CNc3nc(C)nc(C(=O)N4CCC(N5CCC(N(C)S(C)(=O)=O)CC5)CC4)c3C)O2)c1` [Example 22], the Ki stood at 11 nM. Consider `Cc1cccc([C@H]2CCC[C@@H](CNc3ncnc(C(=O)N4CCC(N5CCC(N(C)S(C)(=O)=O)CC5)CC4)c3C)O2)c1` [Example 23], for which the Ki was determined as 494 nM. For `Cc1c(NC[C@H]2CCC[C@@H](c3ccc(C(F)(F)F)cc3)O2)ncnc1C(=O)N1CCC(N2CCC(N(C)S(C)(=O)=O)CC2)CC1` [Example 24], the Ki worked out at 4 nM. With `Cc1c(NC[C@H]2CCC[C@@H](c3ccc(C(F)(F)F)nc3)O2)ncnc1C(=O)N1CCC(N2CCC(N(C)S(C)(=O)=O)CC2)CC1` [Example 25], the inhibition constant (Ki) is 418 nM.

With `Cc1c(NC[C@H]2CCC[C@@H](c3ccc(OC(F)(F)F)cc3)O2)ncnc1C(=O)N1CCC(N2CCC(N(C)S(C)(=O)=O)CC2)CC1` [Example 26], the inhibitory constant (Ki) is 6 nM.

Regarding `CCS(=O)(=O)N(C)C1CCN(C2CCN(C(=O)c3ncnc(NC[C@H]4CCC[C@@H](c5ccc(Cl)cc5)O4)c3C)CC2)CC1` [Example 27], the Ki was 12 nM. For the compound `Cc1cccc([C@H]2CCC[C@@H](CNc3nc(C)nc(C(=O)N4CCC(N5CCC(N(C)S(C)(=O)=O)CC5)CC4)c3C)O2)c1` [Example 28], the Ki worked out at 658 nM.

As to `Cc1c(NC[C@@H]2CCC[C@H](c3cccc(C(F)(F)F)c3)O2)ncnc1C(=O)N1CCC(N2CCC(N(C)S(C)(=O)=O)CC2)CC1` [Example 28a], the Ki is 45 nM. Consider `Cc1c(NCC2CCCC(c3ccc(C(F)(F)F)o3)O2)ncnc1C(=O)N1CCC(N2CCC(N(C)S(C)(=O)=O)CC2)CC1` (stereo not drawn) [Example 28b], for which the Ki was found to be 0.5 nM. `COC1COCCC1NC1CCN(C(=O)c2ncnc(NC[C@@H]3CCC[C@H](c4ccc(C)c(F)c4)O3)c2C)CC1` (stereo partly drawn) [Example 28c]: the Ki is 0.4 nM. For the compound `Cc1ccc([C@H]2CCC[C@@H](CNc3ncnc(C(=O)N4CCC(N5CCC(N(C)S(C)(=O)=O)CC5)CC4)c3C)O2)cc1F` [Example 28d], the Ki stood at 12 nM. Take `COC1COCCC1NC1CCN(C(=O)c2ncnc(NCC3CCCC(c4ccc(C(F)(F)F)o4)O3)c2C)CC1` (stereo not drawn) [Example 28e]: the Ki was 20 nM. On to `Cc1c(NC[C@@H]2CCC[C@H](c3ccc(C(C)(C)C#N)cc3)O2)ncnc1C(=O)N1CCC(N2CCC(N(C)S(C)(=O)=O)CC2)CC1` [Example 28f], for which the Ki was found to be 78 nM. The value for `Cc1ccc([C@@H]2CCC[C@H](CNc3cc(C(=O)N4CCC(N5CCC(N(C)S(C)(=O)=O)CC5)CC4)ncn3)O2)cc1` [Example 28g] was 8 nM. With `CO[C@H]1COCC[C@H]1NC1CCN(C(=O)c2cc(NC[C@H]3CCC[C@@H](c4ccc(C)cc4)O3)ncn2)CC1` [Example 28h], the inhibition constant (Ki) was found to be 4 nM.

Consider `CO[C@@H]1COCC[C@@H]1NC1CCN(C(=O)c2cc(NC[C@H]3CCC[C@@H](c4ccc(C)cc4)O3)ncn2)CC1` [Example 28i], for which the Ki was determined as 221 nM. Consider `CO[C@@H]1COCC[C@@H]1NC1CCN(C(=O)c2cc(NC[C@H]3CCC[C@@H](c4ccc(C(F)(F)F)cc4)O3)ncn2)CC1` [Example 28j], for which the Ki is 1 nM. In the case of `CO[C@H]1COCC[C@H]1NC1CCN(C(=O)c2cc(NC[C@H]3CCC[C@@H](c4ccc(C(F)(F)F)cc4)O3)ncn2)CC1` [Example 28k], the Ki worked out at 3 nM. For the compound `CO[C@H]1COCC[C@H]1NC1CCN(C(=O)c2cc(NC[C@H]3CCC[C@@H](c4ccc(OC(F)(F)F)cc4)O3)ncn2)CC1` [Example 28l], the Ki was 2 nM. The same measure for `CO[C@@H]1COCC[C@@H]1NC1CCN(C(=O)c2cc(NC[C@H]3CCC[C@@H](c4ccc(OC(F)(F)F)cc4)O3)ncn2)CC1` [Example 28m]: 1 nM; for `COc1cc(NC[C@H]2CCC[C@@H](c3ccc(C)cc3)O2)cc(C(=O)N2CCC(N[C@H]3CCOC[C@H]3OC)CC2)n1` [Example 28n]: 38 nM; for `CO[C@@H]1COCC[C@@H]1NC1CCN(C(=O)c2ncnc(NC[C@H]3CCC[C@@H](c4ccc(C)cc4)O3)c2C)CC1` [Example 29]: 4 nM. Turning to `CO[C@H]1COCC[C@H]1NC1CCN(C(=O)c2ncnc(NC[C@H]3CCC[C@@H](c4ccc(C)cc4)O3)c2C)CC1` [Example 30], the Ki is 5 nM.
